# Measurements as given in ChEMBL document CHEMBL2074325, “The multidrug resistance protein 5 functions as an ATP-dependent export pump for cyclic nucleotides” (J Biol Chem, 2000).
# Assays:
# Assay type in all cases: functional, cell membranes, Membrane vesicle
# Set-up in all cases: scale not given: the % may be the effect or the level left
# MRP5 (ABCC5) [1] = target: T1, MRP5 (ABCC5) (Homo sapiens, UniProt O15440); assay: TP_TRANSPORTER: inhibition of cGMP uptake (cGMP: 5 uM, Sildenafil: 1 uM) in membrane vesicles from MRP5-expressing V79 cells; details: hamster, probe cGMP (5 uM), read-out: Activity
# MRP5 (ABCC5) [2] = target: T1, MRP5 (ABCC5); assay: TP_TRANSPORTER: inhibition of cGMP uptake (cGMP: 5 uM, Fluorescein diacetate: 50 uM) in membrane vesicles from MRP5-expressing V79 cells; details: hamster, probe cGMP (5 uM), read-out: Activity
# [3] = target: ATP-binding cassette sub-family C member 5 (Homo sapiens, UniProt O15440); assay: TP_TRANSPORTER: inhibition of cGMP uptake (cGMP: 5 uM, Probenecid: 50 uM) in membrane vesicles from MRP5-expressing V79 cells; details: hamster, v79, 50 µM
# MRP5 (ABCC5) [4] = target: T1, MRP5 (ABCC5); assay: TP_TRANSPORTER: inhibition of cGMP uptake (cGMP: 5 uM, Trequinsin: 1 uM) in membrane vesicles from MRP5-expressing V79 cells; details: hamster, probe cGMP (5 uM), read-out: Activity
# MRP5 (ABCC5) [5] = target: T1, MRP5 (ABCC5); assay: TP_TRANSPORTER: inhibition of cGMP uptake (cGMP: 5 uM, Zaprinast: 10 uM) in membrane vesicles from MRP5-expressing V79 cells; details: hamster, probe cGMP (5 uM), read-out: Activity
# T1 sequence (O15440 whole entry): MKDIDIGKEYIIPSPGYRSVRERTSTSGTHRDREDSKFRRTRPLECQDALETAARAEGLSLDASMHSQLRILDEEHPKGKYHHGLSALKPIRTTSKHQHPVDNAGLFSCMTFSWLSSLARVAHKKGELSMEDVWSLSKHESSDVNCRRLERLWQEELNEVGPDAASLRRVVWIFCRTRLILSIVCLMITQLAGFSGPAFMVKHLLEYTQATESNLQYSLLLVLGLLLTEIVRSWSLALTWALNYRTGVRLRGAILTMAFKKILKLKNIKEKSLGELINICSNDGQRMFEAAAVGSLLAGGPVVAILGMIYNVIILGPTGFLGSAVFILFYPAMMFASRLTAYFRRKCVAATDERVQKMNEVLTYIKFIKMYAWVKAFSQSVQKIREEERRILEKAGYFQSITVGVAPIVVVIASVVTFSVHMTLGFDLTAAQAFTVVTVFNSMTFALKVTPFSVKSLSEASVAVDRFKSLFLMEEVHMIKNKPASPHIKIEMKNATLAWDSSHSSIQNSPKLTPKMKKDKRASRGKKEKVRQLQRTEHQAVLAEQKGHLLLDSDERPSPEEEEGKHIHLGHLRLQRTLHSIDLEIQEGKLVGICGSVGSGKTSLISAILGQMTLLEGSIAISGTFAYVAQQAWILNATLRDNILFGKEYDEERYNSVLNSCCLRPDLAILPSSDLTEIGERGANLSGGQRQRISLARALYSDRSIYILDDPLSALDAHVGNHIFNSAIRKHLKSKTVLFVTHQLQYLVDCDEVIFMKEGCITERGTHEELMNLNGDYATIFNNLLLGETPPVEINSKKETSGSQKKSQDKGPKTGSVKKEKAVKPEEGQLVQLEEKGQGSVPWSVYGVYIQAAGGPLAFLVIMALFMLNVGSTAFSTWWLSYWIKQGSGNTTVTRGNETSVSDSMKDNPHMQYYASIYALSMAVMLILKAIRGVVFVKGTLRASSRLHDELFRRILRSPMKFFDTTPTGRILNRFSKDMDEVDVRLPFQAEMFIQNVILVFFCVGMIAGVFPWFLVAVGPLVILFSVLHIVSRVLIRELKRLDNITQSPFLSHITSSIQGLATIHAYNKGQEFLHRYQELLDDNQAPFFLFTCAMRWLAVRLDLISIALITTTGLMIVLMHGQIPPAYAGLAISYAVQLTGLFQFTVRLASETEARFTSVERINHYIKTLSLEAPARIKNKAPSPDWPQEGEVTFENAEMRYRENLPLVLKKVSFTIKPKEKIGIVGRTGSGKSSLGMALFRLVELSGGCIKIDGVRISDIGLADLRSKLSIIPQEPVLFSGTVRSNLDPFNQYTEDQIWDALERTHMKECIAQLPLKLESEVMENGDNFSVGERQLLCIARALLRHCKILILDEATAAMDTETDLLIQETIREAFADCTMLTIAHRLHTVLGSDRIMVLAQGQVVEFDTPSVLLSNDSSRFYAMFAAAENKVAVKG
# Chain of ATP-binding cassette sub-family C member 5 (O15440 whole entry): as above
compound,measurement,setting,value
CCCc1nn(C)c2c(=O)[nH]c(-c3cc(S(=O)(=O)N4CCN(C)CC4)ccc3OCC)nc12,activity at 1 µM,MRP5 (ABCC5) [1],22%
CC(=O)Oc1ccc2c(c1)Oc1cc(OC(C)=O)ccc1C21OC(=O)c2ccccc21 [FLUORESCEIN DIACETATE],activity at 50 µM,MRP5 (ABCC5) [2],49.2%
CCCN(CCC)S(=O)(=O)c1ccc(C(=O)O)cc1 [PROBENECID],Activity,[3],31.7%
COc1cc2c(cc1OC)-c1c/c(=N\c3c(C)cc(C)cc3C)n(C)c(=O)n1CC2 [TREQUINSIN],activity at 1 µM,MRP5 (ABCC5) [4],26.2%
CCCOc1ccccc1-c1nc2nn[nH]c2c(=O)[nH]1 [ZAPRINAST],activity at 10 µM,MRP5 (ABCC5) [5],41%
